Earlier results in US20160120807A1, “CELL-SURFACE DECORATION WITH ACTIVE AGENTS” (University of Louisville Research Foundation, Inc., priority 2005, published 2016).

Legend:
NPY Y1 receptor [1] = target: T1, NPY Y1 receptor (Homo sapiens, UniProt P25929)
T1 construct: host or cells: smooth muscle cells; vessel after angioplasty
T1 sequence (P25929 1-384): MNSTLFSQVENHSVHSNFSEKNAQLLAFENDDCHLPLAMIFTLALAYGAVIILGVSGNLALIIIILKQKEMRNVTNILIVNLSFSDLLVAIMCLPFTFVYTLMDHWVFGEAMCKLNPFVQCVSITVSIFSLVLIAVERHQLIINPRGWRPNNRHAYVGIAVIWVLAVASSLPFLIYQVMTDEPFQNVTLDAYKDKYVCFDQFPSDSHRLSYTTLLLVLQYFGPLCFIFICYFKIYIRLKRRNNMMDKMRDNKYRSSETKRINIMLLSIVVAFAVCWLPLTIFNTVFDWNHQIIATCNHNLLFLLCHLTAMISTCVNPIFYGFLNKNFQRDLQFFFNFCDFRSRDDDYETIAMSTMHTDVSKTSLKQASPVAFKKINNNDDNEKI

NPY Y1 receptor [2] = target: T1, NPY Y1 receptor; remark: listed apart in the source

N=C(N)NCCC[C@@H](NC(=O)C(c1ccccc1)c1ccccc1)C(=O)NCc1ccc(O)cc1 [BIBP3226, (R)—N2-(diphenylacetyl)-N-[(4-hydroxy-phenyl)methyl]-D-arginine-amide]
mitogen-activated protein kinase (MAPK) activity in smooth muscle cells (NPY Y1 receptor [1]): reduces mitogen-activated protein kinase (MAPK) activity | neointimal hyperplasia after angioplasty (NPY Y1 receptor [2]): reduces neointimal hyperplasia
